Earlier results, collected in the PKSmart pharmacokinetics tables (Seal et al. 2025).

Experiment: Lombardo, Berellini, Obach 2018, Drug Metab Dispos 46:1466, doi 10.1124/dmd.118.082966
Details: human; for MRT / Vd / clearance / half-life: in vivo, iv; for fraction unbound: plasma

| SMILES | MRT [h] | Vd [L/kg] | clearance [mL/min/kg] | half-life [h] | fraction unbound |
| --- | --- | --- | --- | --- | --- |
| CN1CCN(C(=O)OC2c3nccnc3C(=O)N2c2ccc(Cl)cn2)CC1 (stereo not drawn) | 6.6 | 1.3 | 3.3 | 5.2 |  |
| CCN1C[C@H]2CN(C)C[C@@H](C1)C2OC(=O)c1ccc(Cl)cc1 (stereo partly drawn) | 8.8 | 9 | 17 | 8.6 |  |
| CN1CC[C@]23c4c5ccc(O)c4O[C@H]2[C@@H](O[C@@H]2OC(C(=O)O)[C@@H](O)[C@H](O)[C@H]2O)C=C[C@H]3[C@H]1C5 (stereo partly drawn) | 0.91 | 0.12 | 2.2 | 1.4 | 0.67 |
| CCOC(=O)C(CCc1ccccc1)NC(C)C(=O)N1C(C(=O)O)C[C@H]2CCCC[C@H]21 (stereo partly drawn) |  |  |  |  | 0.17 |
| COc1ccc(CCN(C)CCCN2CCc3cc(OC)c(OC)cc3CC2=O)cc1OC | 3.2 | 1.6 | 8.4 | 2.8 |  |
| O=C1CN=C(c2ccccc2Cl)c2cc(Cl)ccc2N1 | 220 | 2.2 | 0.17 | 200 | 0.051 |
| CC[C@@H](CO)NC(=O)C1C=C2c3cccc4[nH]cc(c34)C[C@H]2N(C)C1 (stereo partly drawn) | 2.25 | 0.96 | 7.18 | 1.85 |  |
| C=C(C)[C@@H]1CCC(C)=C[C@H]1c1c(O)cc(CCCCC)cc1O | 8.23 | 6.69 | 13.6 | 23.8 |  |
| COc1cc(OC)c(/C=C/S(=O)(=O)Cc2ccc(OC)c(NCC(=O)O)c2)c(OC)c1 | 1.2 | 0.11 | 1.51 | 0.95 |  |
| NC[C@H]1OB(O)c2c(OCCCO)cccc21 | 9.6 | 2.37 | 4.1 | 11.6 |  |
| CC(O)C(CO)NC(=O)C1CSSCC(NC(=O)C(N)Cc2ccccc2)C(=O)NC(Cc2ccccc2)C(=O)NC(Cc2c[nH]c3ccccc23)C(=O)NC(CCCCN)C(=O)NC(C(C)O)C(=O)N1 (stereo not drawn) | 1.3 | 0.19 | 2.38 | 1.7 | 0.35 |
| CCCc1cc(=O)[nH]c(=S)[nH]1 | 1.8 | 0.34 | 3.1 | 1.3 | 0.18 |
| OCc1ncc2n1-c1ccc(Cl)cc1C(c1ccccc1F)=NC2 | 1.3 | 0.77 | 9.71 | 1.1 | 0.1 |
| Cc1cn[nH]c1 | 7.94 | 0.35 | 0.73 | 4.42 |  |
| C[C@H]1O[C@H](O[C@H]2[C@H](O)[C@@H](O)[C@@H](OC(C(=O)C(O)CO)[C@H](O)CO)O[C@@H]2CO)[C@H](O)[C@@H](O)[C@@H]1N[C@H]1C=C(CO)[C@@H](O)[C@H](O)[C@H]1O (stereo partly drawn) | 2.4 | 0.32 | 2.2 | 2.7 |  |
| CC(=O)N(CC[C@@](CCN1CCCCC1)(C(N)=O)c1ccccc1Cl)C(C)C | 7.9 | 2.6 | 5.43 | 12 |  |
| CN(C)C(=O)Oc1cc(OC(=O)N(C)C)cc(C(O)CNC(C)(C)C)c1 (stereo not drawn) | 1.4 | 1.6 | 18 | 2.6 |  |
| COCC(NC(C)=O)C(=O)NCc1ccccc1 (stereo not drawn) | 17.2 | 0.58 | 0.57 | 12.3 | 0.85 |
| C[C@@H]1CCN(C(=O)CC#N)C[C@@H]1N(C)c1ncnc2[nH]ccc12 | 3.5 | 1.24 | 5.88 |  | 0.6 |
| CC(C(=O)O)c1ccc(C(=O)c2cccs2)cc1 (stereo not drawn) | 0.88 | 0.04 | 0.76 | 2.1 |  |
| CC(=N)N1CC[C@H](Oc2ccc(C(Cc3ccc4ccc(C(=N)N)cc4c3)C(=O)O)cc2)C1 (stereo partly drawn) | 14.4 | 1.55 | 1.86 | 24 |  |
| O=C1CCc2ccc(OCCCCN3CCN(c4cccc(Cl)c4Cl)CC3)cc2N1 | 98 | 4.9 | 0.83 | 75 |  |
| Cc1c(F)c(N2CCN[C@H](C)C2)cc2c1c(=O)c(C(=O)O)cn2C1CC1 |  |  | 5.9 | 9.2 | 0.82 |
| OCc1cc([C@@H](O)CNCCCCCCOCCOCc2c(Cl)cccc2Cl)ccc1O | 1.53 | 2.38 | 25.7 | 2.4 | 0.06 |

| SMILES | MRT [h] | Vd [L/kg] | clearance [mL/min/kg] | half-life [h] | fraction unbound |
| --- | --- | --- | --- | --- | --- |
| COc1ccc([C@@H]2CNC(=O)C2)cc1OC1CCCC1 | 1.77 | 0.67 | 6.3 | 7 | 0.11 |
| OCCN1CCN(CC/C=C2/c3ccccc3Sc3ccc(C(F)(F)F)cc32)CC1 |  |  | 4.14 | 34.2 |  |
| Nc1c(CC(=O)O)cccc1C(=O)c1ccc(Br)cc1 | 1.5 | 0.11 | 1.3 | 2.6 | 0.0011 |
| Cc1cccc(N2CC(CO)OC2=O)c1 (stereo not drawn) | 2.3 | 1.5 | 11 | 1.6 | 0.49 |
| Nc1nc(=O)c2nc(CNc3ccc(C(=O)NC(CCC(=O)O)C(=O)O)cc3)cnc2[nH]1 (stereo not drawn) | 3.1 | 9.7 | 52 | 2.6 | 0.5 |
| CN(C)[C@@H]1C(O)=C(C(=O)NCN2CCCC2)C(=O)[C@@]2(O)C(O)=C3C(=O)c4c(O)cccc4[C@@](C)(O)[C@H]3C[C@@H]12 | 9.3 | 0.54 | 0.97 | 8.8 | 0.5 |
| Cc1cc(OC[C@H](O)CNC(C)C)c(C)c(C)c1O | 3.7 | 3.6 | 16.2 | 3.1 |  |
| CCOc1ccc2ccccc2c1C(=O)NC1C(=O)N2C(C(=O)O)C(C)(C)S[C@H]12 (stereo partly drawn) | 1.1 | 0.22 | 3.3 | 0.7 | 0.13 |
| Oc1c(C2=CC[C@@H](c3ccc(Cl)cc3)CC2)c(O)c2ccccc2c1O | 67 | 0.6 | 0.15 | 63 | 0.001 |
| Cc1onc(-c2c(F)cccc2Cl)c1C(=O)NC1C(=O)N2C(C(=O)O)C(C)(C)S[C@H]12 (stereo partly drawn) | 1.3 | 0.19 | 2.4 | 1.4 | 0.043 |
| CC[C@H]1OC(=O)C(C)[C@@H](O[C@H]2C[C@@](C)(OC)[C@@H](O)[C@H](C)O2)[C@H](C)[C@@H](O[C@@H]2O[C@H](C)C[C@H](N(C)C)[C@H]2O)[C@](C)(OC)CC(C)C(=O)C(C)[C@@H](O)[C@]1(C)O (stereo partly drawn) | 3.4 | 1.5 | 7.3 | 2.8 |  |
| CCOc1ccc2c(c1)[C@]1(CC[C@H](OCCN3CCOCC3)CC1)C(=O)N2S(=O)(=O)c1ccc(C(=O)NC(C)(C)C)cc1OC | 9.4 | 7 | 12.3 | 10.4 | 0.1 |
| COc1c(C)cc2c(c1O)[C@@H]1[C@@H]3Cc4c(OC(C)=O)c(C)c5c(c4[C@H](CNC(=O)/C=C/c4cccc(C(F)(F)F)c4)N3[C@@H](O)[C@H](C2)N1C)OCO5 | 17.5 | 12.6 | 12 | 22.2 |  |
| CCCC[P@@](=O)(O)CCCN |  |  | 1.56 | 2.1 |  |
| CC[C@@H]([C@H](C)O)n1ncn(-c2ccc(N3CCN(c4ccc(OC[C@H]5CO[C@@](Cn6cncn6)(c6ccc(F)cc6F)C5)cc4)CC3)cc2)c1=O | 14.5 | 3.8 | 4.3 | 10.6 | 0.013 |
| CO[C@H]1/C=C/O[C@@]2(C)Oc3c(C)c(O)c4c(O)c(c(/C=N/N5CCN(C)CC5)c(O)c4c3C2=O)NC(=O)C(C)=CC=CC(C)[C@H](O)[C@@H](C)[C@@H](O)[C@@H](C)[C@H](OC(C)=O)[C@@H]1C (stereo partly drawn) | 4.6 | 0.97 | 3.5 |  |  |
| CNC[C@H](O)CC12CCC(c3ccccc31)c1ccccc12 | 21.4 | 18.8 | 14.6 | 18.8 |  |
| CN1[C@@H]2CC[C@H]1C[C@@H](OC(=O)c1c[nH]c3ccccc13)C2 | 6.3 | 9.7 | 26 | 5.6 |  |
| O=C(O)C1=C(C[n+]2ccc(CCS(=O)(=O)[O-])cc2)CSC2C(NC(=O)C(NC(=O)c3[nH]cnc3C(=O)O)c3ccccc3)C(=O)N12 (stereo not drawn) | 2.1 | 0.21 | 1.7 | 1.8 |  |
| CNC1=Nc2ccc(Cl)cc2C(c2ccccc2)=[N+](O)C1 | 11 | 0.25 |  | 8.3 |  |
| Cc1ncc([N+](=O)[O-])n1C[C@H](O)CCl | 18.1 | 1.16 | 1.08 | 12 | 0.88 |
| Cn1cc(C(=O)C2CCc3[nH]cnc3C2)c2ccccc21 (stereo not drawn) | 6.28 | 2.65 | 7.03 | 4.94 |  |
| CCOC(=O)c1ccc(C#Cc2ccc3c(c2)C(C)(C)CCS3)nc1 | 1.56 | 3.55 | 37.2 | 6.22 |  |
| C/C(=C\[C@H](C(C)C)N(C)C(=O)C(NC(=O)C1CCCCN1C(C)C)C(C)(C)C)C(=O)O (stereo partly drawn) | 21.5 | 1.26 | 0.97 | 17.5 |  |

| SMILES | MRT [h] | Vd [L/kg] | clearance [mL/min/kg] | half-life [h] | fraction unbound |
| --- | --- | --- | --- | --- | --- |
| Oc1cccc(-c2c3nc(c(-c4cccc(O)c4)c4ccc([nH]4)c(-c4cccc(O)c4)c4ccc([nH]4)c(-c4cccc(O)c4)c4nc2CC4)C=C3)c1 |  |  | 0.06 | 91.5 | 0.14 |
| CCCCCCCCOCCOC(=O)CN(CC(=O)O)c1ccccc1OCCOc1ccccc1N(CC(=O)O)CC(=O)OCCOCCCCCCCC | 1.3 | 1.1 | 14 | 3.5 |  |
| CNS(=O)(=O)Cc1ccc2[nH]cc(CCCN3CCN(c4ncncc4OC)CC3)c2c1 | 2.25 | 0.87 | 6.44 | 5.26 |  |
| OC(c1ccccc1)(c1ccccc1)C12CC[N+](CCOCc3ccccc3)(CC1)CC2 | 0.57 | 1.23 | 36 | 19 | 0.11 |
| CN1Cc2c(N)cccc2C(c2ccccc2)C1 (stereo not drawn) | 4.5 | 6 | 22 | 6.5 |  |
| O=C(O)C1/C(=C/CO)O[C@@H]2CC(=O)N12 (stereo partly drawn) | 1 | 0.22 | 3.1 | 0.9 |  |
| COc1ccccc1Oc1c(NS(=O)(=O)c2ccc(C(C)(C)C)cc2)nc(-c2ncccn2)nc1OCCO | 2.3 | 0.29 | 2.1 | 4.1 | 0.037 |
| CCCCNc1cc(C(=O)O)cc(S(N)(=O)=O)c1Oc1ccccc1 | 1.1 | 0.16 | 2.5 | 1.2 |  |
| O=C1c2cccc3c2[C@H](CCC3)CN1[C@@H]1CN2CCC1CC2 | 40 | 6.3 | 2.6 | 39 | 0.38 |
| C[C@@]12CCCCC[C@@H](Cc3ccc(O)cc31)[C@@H]2N | 4.6 | 5.6 | 27.5 | 3.9 | 0.08 |
| C[C@@H](O)C1C(=O)N2C(C(=O)O)=C(CN)S[C@H]12 (stereo partly drawn) | 0.5 | 0.23 | 7.67 | 0.5 |  |
| O=S(=O)(c1cccc2cnccc12)N1CCCNCC1 | 0.26 | 1.22 |  |  |  |
| OC[C@@H]1O[C@@H](n2cnc3c2N=CNC[C@H]3O)C[C@H]1O | 6 | 0.59 | 1.63 | 5.3 |  |
| Clc1cccc(N2CCNCC2)c1 | 7 | 2.5 | 6.1 | 4.7 |  |
| O=C(CCCN1CCC(n2c(=O)[nH]c3ccccc32)CC1)c1ccc(F)cc1 | 7.5 | 3.8 | 8.3 | 5.8 |  |
| C=CC(=O)N1CCCC(n2nc(-c3ccc(Oc4ccccc4)cc3)c3c(N)ncnc32)C1 (stereo not drawn) |  |  |  |  | 0.03 |
| Cc1cc(O)c2c(=O)c3c(O)cc(O)c4c5c(O)cc(O)c6c(=O)c7c(O)cc(C)c8c1c2c(c34)c(c78)c65 | 32 | 0.25 | 0.13 | 42 |  |
| CCCc1c(O)n2c(N(C)C)nc3ccc(C)cc3[n+]2c1O | 14 | 0.12 | 0.14 | 17 | 0.004 |
| N#CN | 0.8 | 0.78 | 17 | 0.43 |  |
| CC[C@H]1OC(=O)C(C)C(=O)C(C)[C@@H](O[C@@H]2O[C@H](C)C[C@H](N(C)C)[C@H]2O)[C@](C)(OC)CC(C)C(=O)C(C)[C@H]2N(CCCCn3cnc(-c4cccnc4)c3)C(=O)O[C@]12C (stereo partly drawn) | 3.6 | 3 | 14 | 12 | 0.41 |
| O=C1CCC(N2C(=O)c3ccccc3C2=O)C(=O)N1 (stereo not drawn) | 4.3 | 0.95 | 3.4 | 4.7 | 0.4 |
| CNC(=O)N(N(CCCl)S(C)(=O)=O)S(C)(=O)=O | 0.63 | 0.88 | 23.1 | 0.49 |  |
| CCn1cc(C(=O)O)c(=O)c2cc(F)c(N3CCN[C@@H](C)C3)c(F)c21 | 7.89 | 2.04 | 3.98 | 8.1 |  |
| CCOCCn1c(C2CCN(CCc3ccc(C(C)(C)C(=O)O)cc3)CC2)nc2ccccc21 | 3.56 | 0.61 | 2.87 | 5.16 | 0.13 |
